Measured values from US9174953B2, “Bicyclic thiazoles as allosteric modulators of mGluR5 receptors” (Janssen Pharmaceutica NV, priority 2009, dated 2015).

Key:
human mGluR5 receptor = target: T1, human mGluR5 receptor (Homo sapiens, UniProt P41594); assay: intracellular Ca2+ mobilization assay, potentiation of glutamate EC20 response (FDSS); type: cell-based; settings: for Emax: HEK293, maximum % effect in concentration-response curve, relative to glutamate ECMax-treated wells, HEK-293 human mGluR5; for EC50: human mGluR5 stably expressed in HEK-293 cells, Fluo-4 AM, increase in glutamate EC20 (~0.2 μM) response
T1 construct: expressed in transfected cells
Excerpt: The compounds provided in the present invention are positive allosteric modulators of mGluR5. These compounds appear to potentiate glutamate responses by binding to an allosteric site other than the glutamate binding site. The response of mGluR5 to a concentration of glutamate is increased when compounds of Formula (I) are present. Compounds of Formula (I) are expected to have their effect substantially at mGluR5 by virtue of their ability to enhance the function of the receptor. The behaviour of positive allosteric modulators tested at mGluR5 using the intracellular Ca^2+ mobilization binding assay method described below and which is suitable for the identification of such compounds.
In brief, the human mGluR5 receptor was stably expressed in HEK-293 cells and grown at a density of 40,000 cells/well in PDL-coated 384-well plates. Cells were preloaded with the calcium-sensing dye Fluo-4 AM and various concentrations of test compound were added in the absence of exogenous glutamate to test for direct agonist activity. Shortly (2.5 min) thereafter, an EC20 equivalent of glutamate (˜0.2 μM) was added. The fluorescence signal was monitored using a Hamamatsu Functional Drug Screening System (FDSS) fluorescence plate reader following the addition of compound alone (direct agonist response) and then the further addition of an EC20 of glutamate (positive allosteric modulation response). The pEC50 was defined as the negative log of the test compound concentration which produced an increase in the glutamate EC20-mediated response that was 50% of maximum. Individual amplitudes were expressed as % effect by multiplying each amplitude by 100 and then dividing the product by the mean of the amplitudes derived from the glutamate ECMax-treated wells. Emax values reported in this application are defined as the maximum % effect obtained in a concentration-response curve.

T1 sequence (P41594 21-1212): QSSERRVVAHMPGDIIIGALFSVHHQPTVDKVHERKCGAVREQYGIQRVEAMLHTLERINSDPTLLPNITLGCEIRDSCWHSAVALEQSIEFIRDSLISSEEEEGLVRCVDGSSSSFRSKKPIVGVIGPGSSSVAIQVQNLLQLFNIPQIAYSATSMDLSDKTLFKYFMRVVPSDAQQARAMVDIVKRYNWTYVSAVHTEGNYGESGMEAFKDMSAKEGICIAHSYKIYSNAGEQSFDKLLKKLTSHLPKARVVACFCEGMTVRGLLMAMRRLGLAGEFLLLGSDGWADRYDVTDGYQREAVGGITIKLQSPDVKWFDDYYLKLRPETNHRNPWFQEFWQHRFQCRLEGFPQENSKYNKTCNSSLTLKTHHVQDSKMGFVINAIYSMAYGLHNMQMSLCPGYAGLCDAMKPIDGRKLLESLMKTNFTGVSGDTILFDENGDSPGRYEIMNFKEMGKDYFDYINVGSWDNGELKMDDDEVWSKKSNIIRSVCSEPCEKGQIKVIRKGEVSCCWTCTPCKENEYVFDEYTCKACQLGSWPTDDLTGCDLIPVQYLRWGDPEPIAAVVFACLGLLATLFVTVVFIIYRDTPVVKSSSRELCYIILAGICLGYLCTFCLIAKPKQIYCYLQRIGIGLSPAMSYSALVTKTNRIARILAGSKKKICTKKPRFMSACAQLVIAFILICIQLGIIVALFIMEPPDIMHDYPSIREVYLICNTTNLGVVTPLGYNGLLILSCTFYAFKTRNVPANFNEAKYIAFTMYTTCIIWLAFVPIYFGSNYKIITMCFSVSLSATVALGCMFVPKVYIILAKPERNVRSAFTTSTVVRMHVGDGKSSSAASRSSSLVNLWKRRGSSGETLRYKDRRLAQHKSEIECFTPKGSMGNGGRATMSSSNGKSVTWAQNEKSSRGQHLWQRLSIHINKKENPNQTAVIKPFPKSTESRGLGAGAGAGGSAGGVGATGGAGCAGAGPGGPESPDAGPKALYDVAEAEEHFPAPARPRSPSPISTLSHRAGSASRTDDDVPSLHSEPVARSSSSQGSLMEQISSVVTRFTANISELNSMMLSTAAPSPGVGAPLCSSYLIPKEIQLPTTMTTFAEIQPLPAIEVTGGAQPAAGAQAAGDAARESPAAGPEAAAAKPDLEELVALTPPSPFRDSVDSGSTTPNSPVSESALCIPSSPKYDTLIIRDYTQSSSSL

| Emax (human mGluR5 receptor) | EC50 (human mGluR5 receptor) | melting point | Structure (SMILES) |
| --- | --- | --- | --- |
| 100% | 51.3 nM | 117.1 to 119.9 °C | O=C1CCCc2nc(C#Cc3ccccc3)sc21 [Compound 1, 5,6-dihydro-2-(phenylethynyl)-7(4H)-benzothiazolone] |
| 51% | 18600 nM |  | O=C1CCCc2nc(CCc3ccccc3)sc21 [Compound 6, 5,6-dihydro-2-(2-phenylethyl)-7(4H)-benzothiazolone] |
| 78% | 219 nM | 232.1 to 235.1 °C | O=C1NCCc2nc(C#Cc3ccccc3)sc21 [Compound 3, 6,7-dihydro-2-(phenylethynyl)-thiazolo[5,4-c]pyridin-4(5H)-one] |
| 92% | 1510 nM | 109.5 to 112 °C | O=C1CCCc2nc(C#Cc3cccnc3)sc21 [Compound 10, 5,6-dihydro-2-(3-pyridinylethynyl)-7(4H)-benzothiazolone] |
|  |  | 221.3 °C | O=C1c2sc(NCc3ccccc3)nc2CCN1c1ccc(F)cc1 [Compound 22] |

Further lines, the compound ahead of its results:

| Structure (SMILES) | Emax (human mGluR5 receptor) | EC50 (human mGluR5 receptor) | melting point |
| --- | --- | --- | --- |
| CN1CCc2nc(C#Cc3ccccc3)sc2C1=O [Compound 4, 6,7-dihydro-5-methyl-2-(phenylethynyl)-thiazolo[5,4-c]pyridin-4(5H)-one] | 79% | 69.2 nM | 146.1 to 147.2 °C |
| O=C1CCCc2nc(C#Cc3cncc(F)c3)sc21 [Compound 2, 2-[(5-fluoro-3-pyridinyl)ethynyl]-5,6-dihydro-7(4H)-benzothiazolone] | 83% | 4270 nM | 139.2 to 141.9 °C |
| O=C1NCCCc2nc(-c3ccc(N4CCCCC4)nc3)sc21 [Compound 8] | 11% | 5010 nM | 260.3 to 264 °C |
| O=C1c2sc(OCc3cccnc3)nc2CCN1c1ccc(F)cc1F [Compound 23] |  |  | 106 to 110 °C |
| O=C1c2sc(C#Cc3ccccc3)nc2CCN1Cc1ccccc1 [Compound 12, 6,7-dihydro-2-(phenylethynyl)-5-(phenylmethyl)-thiazolo[5,4-c]pyridin-4(5H)-one] | 90% | 468 nM | 141.5 to 152.5 °C |
| O=C1c2sc(OCc3ccncc3)nc2CCN1c1ccc(F)cc1 [Compound 21] |  |  | 169.1 to 170.9 °C |
| CN1CCOc2cc(-c3nc4c(s3)C(=O)CCC4)ccc21 [Compound 9, 2-(4-methyl-3,4-dihydro-2H-1,4-benzoxazin-7-yl)-5,6-dihydro-1,3-benzothiazol-7(4H)-one] | 77% | 6310 nM | 218.1 to 220.8 °C |
| O=C1c2sc(OCc3ccccn3)nc2CCN1c1ccc(F)cc1F [Compound 24] |  |  | 98.1 to 100.1 °C |
| COCCN1CCc2nc(C#Cc3ccccc3)sc2C1=O [Compound 11, 6,7-dihydro-5-(2-methoxyethyl)-2-(phenylethynyl)-thiazolo[5,4-c]pyridin-4 (5H)-one] | 64% | 275 nM | 144.5 to 148.2 °C |
